Data from patent US20250152719A1, “FUSED IMIDE DERIVATIVE” (Chia Tai Tianqing Pharmaceutical Group Co., Ltd., priority 2021, published 2025).
Where two headings read alike, the source gives them in different places.

Experiments:
BTK = BTK (Homo sapiens (Human), UniProt Q06187); assay: BTK degradation in OCI-LY10 cells (Total-BTK HTRF kit); type: cell-based; conditions: 24 (or 6) h incubation; for Dmax / BTK degradation in OCI-LY10 cells Dmax: maximum degradation rate; for DC50: DC50 = concentration when degradation rate reaches 50%, read-out: OCI-LY10 cell BTK degradation DC50
Chain of BTK (Q06187 whole entry): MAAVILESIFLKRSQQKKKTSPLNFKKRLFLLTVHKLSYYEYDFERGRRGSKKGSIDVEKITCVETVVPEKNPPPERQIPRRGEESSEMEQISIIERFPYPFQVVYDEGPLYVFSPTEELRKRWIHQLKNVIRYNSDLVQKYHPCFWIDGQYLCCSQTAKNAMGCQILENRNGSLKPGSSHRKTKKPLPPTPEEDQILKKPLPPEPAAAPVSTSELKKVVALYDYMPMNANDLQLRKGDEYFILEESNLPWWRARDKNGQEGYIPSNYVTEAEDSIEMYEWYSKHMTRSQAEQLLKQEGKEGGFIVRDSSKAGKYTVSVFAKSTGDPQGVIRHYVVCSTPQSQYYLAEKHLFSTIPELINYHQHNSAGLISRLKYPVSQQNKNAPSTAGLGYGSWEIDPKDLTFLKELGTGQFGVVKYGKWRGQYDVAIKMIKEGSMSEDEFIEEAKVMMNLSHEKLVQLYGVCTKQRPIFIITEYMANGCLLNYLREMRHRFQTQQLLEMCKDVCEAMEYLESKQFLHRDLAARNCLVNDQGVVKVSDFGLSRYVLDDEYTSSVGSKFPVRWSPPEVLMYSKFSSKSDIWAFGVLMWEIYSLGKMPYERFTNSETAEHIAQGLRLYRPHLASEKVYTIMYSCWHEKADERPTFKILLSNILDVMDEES
Description: The detection was carried out using the Total-BTK Kits (cisbio, 63ADK064PEH), and 4× Supplemented Lysis buffer was prepared using the Blocking reagent stock solution (100×) and Lysis buffer stock solution (4×). Premixed antibody solutions were prepared using the Detection buffer, Total-BTK d2 antibody, and Total-BTK Eu Cryptate antibody.
OCI-LY10 cells in a good growth state were collected and added to a centrifuge tube, adjusted to a cell density of 4.17×10^6 cells/mL, and seeded in a 384-well plate (12 μL/well). The cells were incubated overnight in a cell incubator. Compounds were added using a nanoliter pipettor such that the final concentrations of the compounds were 100 nM-0.098 nM; the addition was performed in duplicate, and meanwhile, a control was set. After another 24 (or 6) h of incubation in the cell incubator, the 4× Supplemented Lysis buffer was added at 4 μL/well to lyse the cells. After the cells were shaken for 40 min at room temperature, the Premixed antibody solutions were added at 4 μL/well, and the cells were left to stand overnight at room temperature. Fluorescence values of the cells were detected at 665 nm/620 nm using an Envision microplate reader, the four-parameter analysis was performed, the dose-response curves were fit, and DC50 (the concentration of the drug when the degradation rate reaches 50%) and Dmax (the maximum degradation rate) were calculated.

[1] = system: OCI-LY10-BTK(C481S) cells; assay: Inhibitory activity on OCI-LY10-BTK(C481S) cell proliferation (CCK-8); type: cell-based; conditions: 72 h incubation, IC50 per method, unit inferred
Description: OCI-LY10(C481S) cells in the logarithmic growth phase were collected and added to a centrifuge tube, adjusted to a cell density of 5×10^4 cells/mL, and seeded in a 96-well plate (100 μL/well). Meanwhile, compounds were added using a nanoliter pipettor such that the final concentrations of the compounds were 5000 nM-0.31 nM; the addition was performed in duplicate, and meanwhile, a control was set. After another 72 h of incubation in the cell incubator, the detection reagent CCK-8 (manufacturer: Dojindo Laboratories, Beijing; 10 μL/well) was added. After 3 h of incubation in the cell incubator, absorbance values were detected at 450 nm using a PerkinElmer Envision microplate reader, the four-parameter analysis was performed, the dose-response curves were fit, and IC50 was calculated.

OCI-LY10 cells = assay: Inhibitory activity on OCI-LY10 cell proliferation (CCK-8); type: cell-based
Description: (§1) OCI-LY10 cells in a good growth state were collected and added to a centrifuge tube, adjusted to a cell density of 1×10^5 cells/mL, and seeded in a 96-well plate (100 μL/well). The cells were incubated overnight in a cell incubator. Compounds were added using a nanoliter pipettor such that the final concentrations of the compounds were 5000 nM-0.31 nM; the addition was performed in duplicate, and meanwhile, a control was set. After another 72 h of incubation in the cell incubator, 10 μL of CCK-8 (CK04, PP799) was added. After 2.5 h of incubation in the cell incubator, absorbance values were detected at 450 nm using an Envision microplate reader, the four-parameter analysis was performed, the dose-response curves were fit, and IC50 was calculated.

Mouse pharmacokinetics = type: in vivo, ICR mice; conditions: for clearance / half-life / AUC / Cmax: ICR, mouse, plasma; for AUC: read-out: AUC; for Cmax: read-out: Cmax
Description: ICR mice weighing 18-22 g were randomized into groups of 9 after 3-5 days of acclimatization and then intragastrically given the test compound solution at a dose of 10 mg/kg. Plasma samples to be tested were prepared by taking blood from the orbit at time points of 15 min, 30 min, 1 h, 2 h, 3 h, 4 h, 6 h, 8 h, 10 h, and 24 h. 20 μL of each plasma sample to be detected and a standard curve sample were taken, and an acetonitrile solution containing an internal standard was added. […] Pharmacokinetic parameters were fitted using a non-compartmental model (see Table 5).

TMD8-BTK(C481S) cells = assay: Inhibitory activity on TMD8-BTK(C481S) cell proliferation (CCK-8); type: cell-based; conditions: 72 h incubation
Description: as §1, with “TMD8-BTK(C481S)” for “OCI-LY10”, “8×10^4” for “1×10^5”, “4” for “2.5”

[2] = Homo sapiens, OCI-Ly10, 72 h incubation
[3] = po, 10 mg/kg, Mouse i.g. 10 mpk

Row | IC50 (OCI-LY10 cells; [2]) [nM] | Dmax (BTK; OCI-Ly10, OCI-LY10 cells) [%] | IC50 ([1]; 72 h) [nM] | Structure (SMILES) | other results
1 | < 0.31 | > 90 |  | CN1CCN([C@@H]2CCCN(c3cnc(C(N)=O)c(Nc4ccc(C5CCN(CC6Cc7ccc8c(C9CCC(=O)NC9=O)noc8c7C6)CC5)cc4)n3)C2)C1=O (stereo partly drawn) [Compound 89] | clearance (Mouse pharmacokinetics; iv, 1 mg/kg, Mouse i.v. 1 mpk): 1.72 mL/min/kg; half-life (Mouse pharmacokinetics; iv, 1 mg/kg, Mouse i.v. 1 mpk): 2.8 h; AUC (Mouse pharmacokinetics; iv, 1 mg/kg, Mouse i.v. 1 mpk): 9700 ng·h/mL; half-life (Mouse pharmacokinetics; [3]): 3 h; AUC (Mouse pharmacokinetics; [3]): 23700 ng·h/mL; Cmax (Mouse pharmacokinetics; [3]): 1880 ng/mL; F (Mouse pharmacokinetics; Mouse i.g. 10 mpk): 24.5%; IC50 (TMD8-BTK(C481S) cells): 20 nM
2 | < 0.31 | > 90 | 0.31 | CN1CCN([C@@H]2CCCN(c3cnc(C(N)=O)c(Nc4ccc(C5CCN(CC6CN(c7cc8onc(C9CCC(=O)NC9=O)c8c8ccccc78)C6)CC5)cc4)n3)C2)C1=O (stereo partly drawn) [Compound 96] | 
3 | < 0.31 | 99 |  | CN1CCN([C@@H]2CCCN(c3cnc(C(N)=O)c(Nc4ccc(C5CCN(CC6CN(c7ccc8c(C9CCC(=O)NC9=O)noc8c7)C6)CC5)cc4)n3)C2)C1=O (stereo partly drawn) [Compound 9] | DC50 (BTK; OCI-LY10 cells): < 0.098 nM; clearance (Mouse pharmacokinetics; iv, 1 mg/kg, Mouse i.v. 1 mpk): 5.52 mL/min/kg; half-life (Mouse pharmacokinetics; iv, 1 mg/kg, Mouse i.v. 1 mpk): 1.5 h; AUC (Mouse pharmacokinetics; iv, 1 mg/kg, Mouse i.v. 1 mpk): 2970 ng·h/mL; half-life (Mouse pharmacokinetics; [3]): 2.6 h; AUC (Mouse pharmacokinetics; [3]): 13700 ng·h/mL; Cmax (Mouse pharmacokinetics; [3]): 1390 ng/mL; F (Mouse pharmacokinetics; Mouse i.g. 10 mpk): 46.10%; IC50 (TMD8-BTK(C481S) cells; 72 h): 1.2 nM
4 | < 0.31 | > 90 | 0.35 | CN1CCN([C@@H]2CCCN(c3cnc(C(N)=O)c(Nc4ccc(N5CCC(CN6Cc7cc8onc(C9CCC(=O)NC9=O)c8cc7C6)CC5)cc4)n3)C2)C1=O (stereo partly drawn) [Compound 29] | 
5 | < 0.31 | 99 |  | CN1CCN([C@@H]2CCCN(c3cnc(C(N)=O)c(Nc4ccc(C5CCC6(CC5)CN(CC5CN(c7ccc8c(C9CCC(=O)NC9=O)noc8c7)C5)C6)cc4)n3)C2)C1=O (stereo partly drawn) [Compound 11] | DC50 (BTK; OCI-LY10 cells): < 0.098 nM; IC50 (TMD8-BTK(C481S) cells; 72 h): 14 nM
6 | < 0.31 | > 90 | 0.29 | CN1CCN([C@@H]2CCCN(c3cnc(C(N)=O)c(Nc4ccc(N5CCC(CN6CCc7c(ccc8c(C9CCC(=O)NC9=O)noc78)C6)CC5)cc4)n3)C2)C1=O (stereo partly drawn) [Compound 28] | 

Continued, compound first:

Row | Structure (SMILES) | IC50 (OCI-LY10 cells; [2]) [nM] | Dmax (BTK; OCI-Ly10, OCI-LY10 cells) [%] | IC50 ([1]; 72 h) [nM] | other results
7 | CN1CCN([C@@H]2CCCN(c3cnc(C(N)=O)c(Nc4ccc(N5CCC(N6Cc7ccc8c(C9CCC(=O)NC9=O)noc8c7C6)CC5)cc4)n3)C2)C1=O (stereo partly drawn) [Compound 30] | < 0.31 |  |  | Dmax (BTK; OCI-LY10 cells): > 90%; IC50 [1]: 0.44 nM
8 | CN1CCN([C@@H]2CCCN(c3cnc(C(N)=O)c(Nc4ccc(N5CCC(N6CCc7c(ccc8c(C9CCC(=O)NC9=O)noc78)C6)CC5)cc4)n3)C2)C1=O (stereo partly drawn) [Compound 35] | < 0.31 | > 90 | 0.12 | 
9 | CN1CCN([C@@H]2CCCN(c3cnc(C(N)=O)c(Nc4ccc5c(c4)CCN(CC4Cc6ccc7c(C8CCC(=O)NC8=O)noc7c6C4)C5)n3)C2)C1=O (stereo partly drawn) [Compound 40] |  | > 90 | 0.51 | 
10 | CN1CCN([C@@H]2CCCN(c3cnc(C(N)=O)c(Nc4ccc5c(c4)CN(CC4Cc6ccc7c(C8CCC(=O)NC8=O)noc7c6C4)C5)n3)C2)C1=O (stereo partly drawn) [Compound 44] |  | > 90 | 0.56 | 
11 | CN1CCN([C@@H]2CCCN(c3cnc(C(N)=O)c(Nc4ccc5c(c4)CN(C4CN(CC6Cc7ccc8c(C9CCC(=O)NC9=O)noc8c7C6)C4)C5)n3)C2)C1=O (stereo partly drawn) [Compound 47] |  |  |  | BTK degradation in OCI-LY10 cells Dmax (BTK; OCI-LY10 cells): >90%; IC50 [1]: 0.62 nM
12 | CN1CCN([C@@H]2CCCN(c3cnc(C(N)=O)c(Nc4ccc5c(c4)CN(C4CN(CC6Cc7ccc8c(C9CCC(=O)NC9=O)noc8c7C6)C4)C5)n3)C2)C1=O (stereo partly drawn) [Compound 46] |  | > 90 | 0.66 | 
13 | CN1CCN([C@@H]2CCCN(c3cnc(C(N)=O)c(Nc4ccc5c(c4)CCN(CC4Cc6ccc7c(C8CCC(=O)NC8=O)noc7c6C4)C5)n3)C2)C1=O (stereo partly drawn) [Compound 41] | < 0.31 |  |  | BTK degradation in OCI-LY10 cells Dmax (BTK; OCI-LY10 cells): >90%; IC50 [1]: 0.34 nM
14 | CN1CCN([C@@H]2CCCN(c3cnc(C(N)=O)c(Nc4ccc(C5CCN([C@H]6C[C@@H](n7ccc8c9c(C%10CCC(=O)NC%10=O)noc9ccc87)C6)CC5)cc4)n3)C2)C1=O (stereo partly drawn) [Compound 100] | < 0.31 | > 90 |  | IC50 (TMD8-BTK(C481S) cells; 72 h): 0.57 nM
15 | CN1CCN([C@@H]2CCCN(c3cnc(C(N)=O)c(Nc4ccc(N5CCC(CN6CCc7ccc8c(C9CCC(=O)NC9=O)noc8c7C6)CC5)cc4)n3)C2)C1=O (stereo partly drawn) [Compound 26] | < 0.31 | > 90 | 0.26 | 
16 | NC(=O)c1ncc(N2CCCCC2)nc1Nc1ccc(N2CCC(N3CCc4ccc5c(C6CCC(=O)NC6=O)noc5c4CC3)CC2)cc1 (stereo not drawn) [Compound 62] | < 0.31 | > 90 |  | IC50 (TMD8-BTK(C481S) cells; 72 h): 8.2 nM
17 | CN1CCN([C@@H]2CCCN(c3cnc(C(N)=O)c(Nc4ccc(N5CCC(N6CCc7ccc8c(C9CCC(=O)NC9=O)noc8c7C6)CC5)cc4)n3)C2)C1=O (stereo partly drawn) [Compound 34] | < 0.31 | 97 | 0.19 | DC50 (BTK; OCI-LY10 cells): < 0.098 nM
18 | CN1CCN([C@@H]2CCCN(c3cnc(C(N)=O)c(Nc4ccc(C5CCC6(CC5)CN(CC5Cc7ccc8c(C9CCC(=O)NC9=O)noc8c7C5)C6)cc4)n3)C2)C1=O (stereo partly drawn) [Compound 53] | < 0.31 | 96 |  | DC50 (BTK; OCI-LY10 cells): < 0.098 nM; IC50 (TMD8-BTK(C481S) cells): 2.8 nM
19 | CN1CCN([C@@H]2CCCN(c3cnc(C(N)=O)c(Nc4ccc(N5CCC(N6CCc7ccc8c(C9CCC(=O)NC9=O)noc8c7CC6)CC5)cc4)n3)C2)C1=O (stereo partly drawn) [Compound 36] | < 0.31 | 95 | 0.024 | DC50 (BTK; OCI-LY10 cells): < 0.098 nM
20 | CN1CCN([C@@H]2CCCN(c3cnc(C(N)=O)c(Nc4ccc(C5CC6CCCC(C5)N6CC5Cc6ccc7c(C8CCC(=O)NC8=O)noc7c6C5)cc4)n3)C2)C1=O (stereo partly drawn) [Compound 81] | < 0.31 | > 90 |  | IC50 (TMD8-BTK(C481S) cells; 72 h): 11 nM
21 | NC(=O)c1ncc(N2CCCCC2)nc1Nc1ccc(C2CCN(C[C@@H]3CCC(n4ccc5c6c(C7CCC(=O)NC7=O)noc6ccc54)C3)CC2)cc1 (stereo partly drawn) [Compound 97] |  | > 90 | 0.78 | 
22 | CN1CCN([C@@H]2CCCN(c3cnc(C(N)=O)c(Nc4ccc(C5CCN(C[C@@H]6CCC(n7ccc8c9c(C%10CCC(=O)NC%10=O)noc9ccc87)C6)CC5)cc4)n3)C2)C1=O (stereo partly drawn) [Compound 15] |  |  |  | DC50 (BTK; OCI-LY10 cells): < 0.098 nM; BTK degradation in OCI-LY10 cells Dmax (BTK; OCI-LY10 cells): 100%; IC50 [1]: < 0.31 nM; IC50 (OCI-LY10 cells; 72 h incubation): < 0.31 nM
23 | CN1CCN([C@@H]2CCCN(c3cnc(C(N)=O)c(Nc4ccc(C5CC6CCCC(C5)N6CC5Cc6ccc7c(C8CCC(=O)NC8=O)noc7c6C5)cc4)n3)C2)C1=O (stereo partly drawn) [Compound 82] |  |  |  | BTK degradation in OCI-LY10 cells Dmax (BTK; OCI-LY10 cells): >90%; IC50 (OCI-LY10 cells; 72 h incubation): < 0.31 nM; IC50 (TMD8-BTK(C481S) cells): 11 nM
24 | CN1CCN([C@@H]2CCCN(c3cnc(C(N)=O)c(Nc4ccc(C5CC6CCCC(C5)N6C5Cc6ccc7c(C8CCC(=O)NC8=O)noc7c6C5)cc4)n3)C2)C1=O (stereo partly drawn) [Compound 79] | < 0.31 | > 90 |  | IC50 (TMD8-BTK(C481S) cells; 72 h): 12 nM
